Measured values as given in patent US12201632B2, “Levoketoconazole for treatment of congenital adrenal hyperplasia and primary aldosteronism” (Strongbridge Dublin Limited, priority 2018, dated 2025).

Tests used:
[1] = system: human primary adrenocortical cultures; test: Cortisol production in human primary adrenocortical cultures, comparison across cultures; format: cell-based; details: primary human adrenocortical cultures
Method: (§1) To obtain primary cultures, adrenal specimens (adrenocortical adenomas, adrenal hyperplasias and adrenocortical carcinomas) were collected after adrenalectomy at the department of Surgery, Erasmus University Medical Center, Rotterdam, the Netherlands, between April 2016 and May 2018. The study was conducted under guidelines that have been approved by the Medical Ethics Committee of the Erasmus Medical Center and informed consent was obtained from all patients. Immediately after surgery, specimens were minced into small pieces of 2-3 mm^3, washed in culture medium and centrifuged for 5 minutes at 600 g. The tissue was stored overnight in culture medium at 4° C., where after the tissue was centrifuged again and the supernatant was removed. Fragments were dissociated using 10-25 ml collagenase type 1 (2 mg/ml: Sigma-Aldrich), followed by incubation at 37° C. for up to two hours. Ficoll (GE healthcare) density gradient separation was used once or twice as required in order to separate contaminating red blood cells from the tumor cells. Cell viability and cell amount were counted by trypan blue exclusion. Dissociated cells were plated at a density of 10^5 cells per well. ACTH-secreting corticotroph pituitary adenoma tissue from patients with Cushing's disease (n=2) was available after transsphenoidal surgery. Single-cell suspensions of the pituitary adenoma tissues were prepared as previously described in detail.
(§2) Primary culture conditions for primary cultures were similar as described in the section ‘cell culture and compounds’, but with small adjustments: ACTH was used at a concentration of 85 pM (250 pg/mL), treatment was started 3-4 days after plating of the cells and cells were incubated for 3 days, and; for pituitary primary cultures, levoketoconazole and racemic ketoconazole were only tested at a concentration of 1 μM. Owing to a limited number of cells obtained from the specimens, not all experiments were carried out in every primary culture.
(§3) Cortisol concentrations were measured in the supernatant using a chemiluminescence immunoassay system (Immulite 2000XPi; Siemens DPC Inc., Los Angeles, Calif., USA). In addition, we carried out multi-steroid analysis by liquid chromatography/mass spectrometry (LC/MS-MS) to accurately quantify androstenedione, corticosterone, cortisol, 11-deoxycortisol, DHEA, DHEAS, progesterone, 17-hydroxyprogesterone, and testosterone. Concentrations that were tested on the LC/MS-MS were closest to 50% inhibition or maximal inhibition of cortisol as determined by the immunoassay. Steroids were quantified with respect to a calibration series, with internal standards. Steroids were quantified on a Xevo TQS LC-MS/MS (Waters Chromatography).
(§4) Statistical analysis was performed using Graphpad Prism 6.0 (Graphpad Software, San Diego, CA). Non-linear regression curve fitting program was used to calculate the half maximal inhibitory concentrations (IC50) on cortisol production. Effects of both compounds on the steroid profile were measured as absolute change compared to control and compared using the Student's t-test. When assessing differences between effects of both compounds, the percentage change was evaluated and compared in order to correct for differences in the vehicle treated control cells. Values of P<0.05 were considered statistically significant and data are presented as mean SEM.

[2] = system: EAS associated adrenal hyperplasia no. 1 primary culture; test: Steroid profile by LC/MS-MS in EAS associated adrenal hyperplasia no. 1; format: cell-based, human; details: for 11-DOC absolute change vs ACTH stimulation with vehicle / 11-DOC percentage change vs ACTH stimulation with vehicle / 17-OHP absolute change vs ACTH stimulation with vehicle / 17-OHP percentage change vs ACTH stimulation with vehicle / Androstenedione absolute change vs ACTH stimulation with vehicle / Androstenedione percentage change vs ACTH stimulation with vehicle / Corticosterone absolute change vs ACTH stimulation with vehicle / Corticosterone percentage change vs ACTH stimulation with vehicle / Cortisol absolute change vs ACTH stimulation with vehicle / Cortisol percentage change vs ACTH stimulation with vehicle / DHEA absolute change vs ACTH stimulation with vehicle / DHEAS absolute change vs ACTH stimulation with vehicle / Prog absolute change vs ACTH stimulation with vehicle / Prog percentage change vs ACTH stimulation with vehicle / Testosterone absolute change vs ACTH stimulation with vehicle / Testosterone percentage change vs ACTH stimulation with vehicle: EAS associated adrenal hyperplasia no. 1, ACTH; for 11-DOC absolute change vs ACTH stimulation with vehicle / 11-DOC percentage change vs ACTH stimulation with vehicle / 17-OHP absolute change vs ACTH stimulation with vehicle / 17-OHP percentage change vs ACTH stimulation with vehicle / Androstenedione absolute change vs ACTH stimulation with vehicle / Androstenedione percentage change vs ACTH stimulation with vehicle / Corticosterone absolute change vs ACTH stimulation with vehicle / Corticosterone percentage change vs ACTH stimulation with vehicle / Cortisol absolute change vs ACTH stimulation with vehicle / Cortisol percentage change vs ACTH stimulation with vehicle / DHEA absolute change vs ACTH stimulation with vehicle / DHEAS absolute change vs ACTH stimulation with vehicle / Prog absolute change vs ACTH stimulation with vehicle / Prog percentage change vs ACTH stimulation with vehicle / Testosterone absolute change vs ACTH stimulation with vehicle / Testosterone percentage change vs ACTH stimulation with vehicle / 11-DOC absolute change vs control / 11-DOC percentage change vs control / 17-OHP absolute change vs control / 17-OHP percentage change vs control / Androstenedione absolute change vs control / Androstenedione percentage change vs control / Corticosterone absolute change vs control / Corticosterone percentage change vs control / Cortisol absolute change vs control / Cortisol percentage change vs control / DHEA absolute change vs control / DHEAS absolute change vs control / Prog absolute change vs control / Prog percentage change vs control / Testosterone absolute change vs control / Testosterone percentage change vs control: 3 days; for 11-DOC absolute change vs control / 11-DOC percentage change vs control / 17-OHP absolute change vs control / 17-OHP percentage change vs control / Androstenedione absolute change vs control / Androstenedione percentage change vs control / Corticosterone absolute change vs control / Corticosterone percentage change vs control / Cortisol absolute change vs control / Cortisol percentage change vs control / DHEA absolute change vs control / DHEAS absolute change vs control / Prog absolute change vs control / Prog percentage change vs control / Testosterone absolute change vs control / Testosterone percentage change vs control: EAS associated adrenal hyperplasia no. 1, Basal
Method: as §1, §2, §3, §4

With `CC(=O)N1CCN(c2ccc(OC[C@@H]3CO[C@@](Cn4ccnc4)(c4ccc(Cl)cc4Cl)O3)cc2)CC1` (relative stereo) [levoketoconazole, 2S,4R cis-1-acetyl-4-[4-[[2-(2,4-dichlorophenyl)-2-(1H-imidazol-1-ylmethyl)-1,3-dioxolan-4-yl]methoxyl]phenyl]piperazine] the “difference in IC50 value between patients and tissue specimens” value [1] was 24 fold, the “11-DOC absolute change vs ACTH stimulation with vehicle” value (“11-DOC absolute change … with vehicle” below) ([2]; 0.05 μM) was “did not change” and the “11-DOC percentage change vs ACTH stimulation with vehicle” value ([2]; 0.05 μM) was “(+1.6%)”. The “17-OHP absolute change vs ACTH stimulation with vehicle” value (“17-OHP absolute change … with vehicle” for short) ([2]; 0.05 μM) was “+8.300 nmol/l”, the “17-OHP percentage change vs ACTH stimulation with vehicle” value (from here on “17-OHP percentage change … with vehicle”) ([2]; 0.05 μM) was “+41%” and the “Androstenedione absolute change vs ACTH stimulation with vehicle” value ([2]; 0.05 μM) was -9.600 nmol/L. The “Androstenedione percentage change vs ACTH stimulation with vehicle” value ([2]; 0.05 μM) was −50%, the “Corticosterone absolute change vs ACTH stimulation with vehicle” value ([2]; 0.05 μM) was “+97.95 nmol/l” and the “Corticosterone percentage change vs ACTH stimulation with vehicle” value ([2]; 0.05 μM) was “+29%”. The “Cortisol absolute change vs ACTH stimulation with vehicle” value (“Cortisol absolute change … with vehicle” below) ([2]; 0.05 μM) was -234.8 nmol/L, the “Cortisol percentage change vs ACTH stimulation with vehicle” value (shortened to “Cortisol percentage change … with vehicle”) ([2]; 0.05 μM) was −37% and the “DHEA absolute change vs ACTH stimulation with vehicle” value ([2]; 0.05 μM) was “<LLQ”. The “DHEAS absolute change vs ACTH stimulation with vehicle” value ([2]; 0.05 μM) was “<LLQ”, the “Prog absolute change vs ACTH stimulation with vehicle” value ([2]; 0.05 μM) was “+6.025 nmol/l” and the “Prog percentage change vs ACTH stimulation with vehicle” value (shortened to “Prog percentage change … with vehicle”) ([2]; 0.05 μM) was “+167%”. The “Testosterone absolute change vs ACTH stimulation with vehicle” value ([2]; 0.05 μM) was -0.3250 nmol/L, the “Testosterone percentage change vs ACTH stimulation with vehicle” value ([2]; 0.05 μM) was −45% and the “11-DOC absolute change … with vehicle” value ([2]; 0.05 μM, listed as LK) was -6.000 nmol/L. For the same compound, the “17-OHP absolute change … with vehicle” value ([2]; 0.05 μM, listed as LK) was “+8.300 nmol/l”, the “17-OHP percentage change … with vehicle” value ([2]; 0.05 μM, listed as LK) was “(+41%)” and the “Androstenedione absolute change vs ACTH stimulation with vehicle” value ([2]; 0.05 μM, listed as LK) was -9.600 nmol/L. The “Androstenedione percentage change vs ACTH stimulation with vehicle” value ([2]; 0.05 μM, listed as LK) was “(−50%)”, the “Corticosterone absolute change vs ACTH stimulation with vehicle” value ([2]; 0.05 μM, listed as LK) was 97.95 nmol/L and the “Corticosterone percentage change vs ACTH stimulation with vehicle” value ([2]; 0.05 μM, listed as LK) was “(+29%)”. The “Cortisol absolute change … with vehicle” value ([2]; 0.05 μM, listed as LK) was -234.8 nmol/L, the “Cortisol percentage change … with vehicle” value ([2]; 0.05 μM, listed as LK) was “(−37%)” and the “Prog percentage change … with vehicle” value ([2]; 0.05 μM, listed as LK) was “(+167%)”. The “Testosterone absolute change vs ACTH stimulation with vehicle” value ([2]; 0.05 μM, listed as LK) was -0.3250 nmol/L, the “Testosterone percentage change vs ACTH stimulation with vehicle” value ([2]; 0.05 μM, listed as LK) was “(−45%)” and the “11-DOC absolute change … with vehicle” value ([2]; 5 μM) was -435.4 nmol/L. The “11-DOC percentage change vs ACTH stimulation with vehicle” value ([2]; 5 μM) was “(−99%)”, the “17-OHP absolute change … with vehicle” value ([2]; 5 μM) was -31.55 nmol/L and the “17-OHP percentage change … with vehicle” value ([2]; 5 μM) was “(−90%)”. For the same compound, the “Androstenedione absolute change vs ACTH stimulation with vehicle” value ([2]; 5 μM) was -15.19 nmol/L, the “Androstenedione percentage change vs ACTH stimulation with vehicle” value ([2]; 5 μM) was “(−98%)” and the “Corticosterone absolute change vs ACTH stimulation with vehicle” value ([2]; 5 μM) was -373.7 nmol/L. For the same compound, the “Corticosterone percentage change vs ACTH stimulation with vehicle” value ([2]; 5 μM) was “(−100%)”, the “Cortisol absolute change … with vehicle” value ([2]; 5 μM) was -640.2 nmol/L and the “Cortisol percentage change … with vehicle” value ([2]; 5 μM) was “(−100%)”. For the same compound, the “DHEA absolute change vs ACTH stimulation with vehicle” value ([2]; 5 μM) was “<LLQ”, the “DHEAS absolute change vs ACTH stimulation with vehicle” value ([2]; 5 μM) was “<LLQ” and the “Prog absolute change vs ACTH stimulation with vehicle” value ([2]; 5 μM) was “+37.66 nmol/l”. The “Prog percentage change … with vehicle” value ([2]; 5 μM) was “(+1201%)”, the “Testosterone absolute change vs ACTH stimulation with vehicle” value ([2]; 5 μM) was -0.5513 nmol/L and the “Testosterone percentage change vs ACTH stimulation with vehicle” value ([2]; 5 μM) was “(−85%)”. For the same compound, the “11-DOC absolute change vs control” value ([2]; 0.05 μM) was -96.33 nmol/L, the “11-DOC percentage change vs control” value ([2]; 0.05 μM) was “(−37%)” and the “17-OHP absolute change vs control” value ([2]; 0.05 μM) was -0.4667 nmol/L. For the same compound, the “17-OHP percentage change vs control” value ([2]; 0.05 μM) was “(−4.6%)”, the “Androstenedione absolute change vs control” value ([2]; 0.05 μM) was -6.508 nmol/L and the “Androstenedione percentage change vs control” value ([2]; 0.05 μM) was “(−64%)”. The “Corticosterone absolute change vs control” value ([2]; 0.05 μM) was -67.07 nmol/L, the “Corticosterone percentage change vs control” value ([2]; 0.05 μM) was “(−33%)” and the “Cortisol absolute change vs control” value ([2]; 0.05 μM) was -178.4 nmol/L. The “Cortisol percentage change vs control” value ([2]; 0.05 μM) was “(−64%)”, the “DHEA absolute change vs control” value ([2]; 0.05 μM) was “<LLQ” and the “DHEAS absolute change vs control” value ([2]; 0.05 μM) was “<LLQ”. The “Prog absolute change vs control” value ([2]; 0.05 μM) was “+5.108 nmol/l”, the “Prog percentage change vs control” value ([2]; 0.05 μM) was “(+123%)” and the “Testosterone absolute change vs control” value ([2]; 0.05 μM) was -0.2583 nmol/L. For the same compound, the “Testosterone percentage change vs control” value ([2]; 0.05 μM) was “(−48%)”, the “11-DOC absolute change vs control” value ([2]; 5 μM) was -280.5 nmol/L and the “11-DOC percentage change vs control” value ([2]; 5 μM) was “(−99%)”. For the same compound, the “17-OHP absolute change vs control” value ([2]; 5 μM) was -14.33 nmol/L, the “17-OHP percentage change vs control” value ([2]; 5 μM) was “(−93%)” and the “Androstenedione absolute change vs control” value ([2]; 5 μM) was -7.978 nmol/L. The “Androstenedione percentage change vs control” value ([2]; 5 μM) was “(−95%)”, the “Corticosterone absolute change vs control” value ([2]; 5 μM) was -193.8 nmol/L and the “Corticosterone percentage change vs control” value ([2]; 5 μM) was “(−99%)”. For the same compound, the “Cortisol absolute change vs control” value ([2]; 5 μM) was -230.3 nmol/L, the “Cortisol percentage change vs control” value ([2]; 5 μM) was “(−99%)” and the “DHEA absolute change vs control” value ([2]; 5 μM) was “<LLQ”. The “DHEAS absolute change vs control” value ([2]; 5 μM) was “<LLQ”, the “Prog absolute change vs control” value ([2]; 5 μM) was “+13.36 nmol/l” and the “Prog percentage change vs control” value ([2]; 5 μM) was “(+363%)”. For the same compound, the “Testosterone absolute change vs control” value ([2]; 5 μM) was -0.3838 nmol/L, the “Testosterone percentage change vs control” value ([2]; 5 μM) was “(−90%)” and the “total change of steroids” value ([2]; EAS associated adrenal hyperplasia no. 1, basal condition) was -343.9 nmol/L. The “total sum of change of the steroids: decrease” value ([2]; EAS associated adrenal hyperplasia no. 1, under ACTH stimulation) was 138.5 nmol/L and the “propensity to increase 11-deoxycorticosterone secretion compared to racemic ketoconazole” value ([2]; human adrenal cells in the presence of ACTH drive) was “less propensity to increase 11-deoxycorticosterone secretion”.
